pIC50, pKd: −log10 of the molar value. Like-named read-outs stand apart in the source and are kept apart here.
Experiments:
[1] = tested on: OCI-AML-2; assay: Cell proliferation assay (MTS); type: cell-based, human
[2] = tested on: LAL-CUN-2; assay: Cell proliferation assay (MTS); type: cell-based; conditions: Homo sapiens, 48 h
[3] = tested on: CEMO-1; assay: Cell proliferation assay (MTS); type: cell-based, human; conditions: 48 h
[4] = tested on: OCI-Ly3; assay: Cell proliferation assay (MTS); type: cell-based; conditions: Homo sapiens
[5] = target: T1, G9a (Homo sapiens, UniProt Q96KQ7); assay: G9a enzyme activity assay (TR-FRET); type: biochemical; conditions: for pIC50: TR-FRET, internally determined
T1 sequence (Q96KQ7 1-1210): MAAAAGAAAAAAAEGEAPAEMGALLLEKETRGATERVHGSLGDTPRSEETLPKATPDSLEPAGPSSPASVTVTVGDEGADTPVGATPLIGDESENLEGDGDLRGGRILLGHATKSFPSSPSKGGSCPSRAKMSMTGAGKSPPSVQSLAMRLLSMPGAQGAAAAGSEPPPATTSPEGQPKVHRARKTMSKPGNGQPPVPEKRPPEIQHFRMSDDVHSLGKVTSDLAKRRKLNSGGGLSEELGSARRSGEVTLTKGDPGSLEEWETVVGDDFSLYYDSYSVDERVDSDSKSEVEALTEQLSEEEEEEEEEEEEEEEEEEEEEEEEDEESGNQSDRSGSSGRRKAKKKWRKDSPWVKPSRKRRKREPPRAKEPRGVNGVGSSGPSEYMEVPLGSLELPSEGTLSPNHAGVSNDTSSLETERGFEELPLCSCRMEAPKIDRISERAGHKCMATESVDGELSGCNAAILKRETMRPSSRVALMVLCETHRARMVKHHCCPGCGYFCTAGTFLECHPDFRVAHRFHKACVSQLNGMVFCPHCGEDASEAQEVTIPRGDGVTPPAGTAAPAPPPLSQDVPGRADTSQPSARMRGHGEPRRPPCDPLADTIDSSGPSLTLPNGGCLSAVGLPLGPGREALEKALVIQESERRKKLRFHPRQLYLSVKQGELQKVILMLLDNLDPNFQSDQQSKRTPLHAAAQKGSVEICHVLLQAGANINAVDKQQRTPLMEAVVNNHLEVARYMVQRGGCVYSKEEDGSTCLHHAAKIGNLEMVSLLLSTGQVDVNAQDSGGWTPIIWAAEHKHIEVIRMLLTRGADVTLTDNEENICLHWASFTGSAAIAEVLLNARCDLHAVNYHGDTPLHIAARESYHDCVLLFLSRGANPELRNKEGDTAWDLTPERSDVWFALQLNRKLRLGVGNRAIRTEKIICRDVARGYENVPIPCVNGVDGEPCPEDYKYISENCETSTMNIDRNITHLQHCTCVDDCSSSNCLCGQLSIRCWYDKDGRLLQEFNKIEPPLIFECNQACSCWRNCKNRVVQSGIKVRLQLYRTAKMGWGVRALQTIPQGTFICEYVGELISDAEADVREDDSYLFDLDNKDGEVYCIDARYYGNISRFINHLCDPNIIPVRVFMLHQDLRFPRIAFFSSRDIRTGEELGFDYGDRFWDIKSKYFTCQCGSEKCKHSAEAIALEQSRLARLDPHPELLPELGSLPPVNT

[6] = tested on: OCI-Ly10; assay: Cell proliferation assay (MTS); type: cell-based, human; conditions: Homo sapiens, OCI-Ly10, 48 h
[7] = tested on: MV4-11; assay: Cell proliferation assay (MTS); type: cell-based; conditions: Homo sapiens
[8] = target: T2, human DNMT1 enzyme (Homo sapiens, UniProt P26358); assay: DNMT1 enzyme activity assay (TR-FRET); type: biochemical; conditions: internally determined
T2 construct: purchased

[9] = target: T3, DNMT1 catalytic domain (501-1632) (Homo sapiens, UniProt P26358); assay: SPR on immobilised DNMT1; type: binding
T3 construct: Flag (N); purchased
From the text: We have indeed tried to measure the affinity of the reported compounds for DNMT1 using SPR. For that, we attempted SPR experiments using the two different DNMT1 protein constructs we can purchase: A full length DNMT1 with an N-terminal GST fusion, and a shorter construct containing the […]
First, we immobilized GST-tagged full length DNMT1 to a chip containing anti-GST antibody, but the amount immobilized was only 8% of the GST Ab chip capacity, and insufficient to detect binding of the ca. 500 Da compounds, presumably due to steric impediments resulting from the large size (dimer of 209 kDa monomers) of the GST-DNMT1 fusion protein. The theoretical SPR signal expected for the compounds binding with a 1:1 stoichiometry to the amount of protein immobilized (2300 RU) is only 5 response units (RU), with the precision of our BiacoreX100 SPR instrument typically being 1- […]
reference channels at 5 µM, indicating unspecific binding to the chip surface/Ab/GST, and very likely masking their possible direct binding to DNMT1. Compound injections at 200 µM […]
differential increase in the DNMT1 channel that indicates non-reversible binding with a high stoichiometry (responses of 81 and 65 RU, respectively; with 5 RU expected for a 1:1 binding), likely resulting from aggregation of the compounds at 200 µM concentration in the DNMT1 channel. […]
properly measured. […]

[10] = Homo sapiens, ALL, read-out: GI50
[11] = Homo sapiens, CEMO-1, 48 h, as used in apoptosis assay, read-out: GI50
[12] = OCI-Ly3, ABC-DLBCL, 48 h, read-out: GI50
[13] = ABC-DLBCL, 48 h, read-out: GI50
[14] = Homo sapiens, OCI-AML2, AML, 48 h, read-out: GI50
[15] = MV4-11, AML, 48 h, read-out: GI50

T2 sequence (P26358 whole entry): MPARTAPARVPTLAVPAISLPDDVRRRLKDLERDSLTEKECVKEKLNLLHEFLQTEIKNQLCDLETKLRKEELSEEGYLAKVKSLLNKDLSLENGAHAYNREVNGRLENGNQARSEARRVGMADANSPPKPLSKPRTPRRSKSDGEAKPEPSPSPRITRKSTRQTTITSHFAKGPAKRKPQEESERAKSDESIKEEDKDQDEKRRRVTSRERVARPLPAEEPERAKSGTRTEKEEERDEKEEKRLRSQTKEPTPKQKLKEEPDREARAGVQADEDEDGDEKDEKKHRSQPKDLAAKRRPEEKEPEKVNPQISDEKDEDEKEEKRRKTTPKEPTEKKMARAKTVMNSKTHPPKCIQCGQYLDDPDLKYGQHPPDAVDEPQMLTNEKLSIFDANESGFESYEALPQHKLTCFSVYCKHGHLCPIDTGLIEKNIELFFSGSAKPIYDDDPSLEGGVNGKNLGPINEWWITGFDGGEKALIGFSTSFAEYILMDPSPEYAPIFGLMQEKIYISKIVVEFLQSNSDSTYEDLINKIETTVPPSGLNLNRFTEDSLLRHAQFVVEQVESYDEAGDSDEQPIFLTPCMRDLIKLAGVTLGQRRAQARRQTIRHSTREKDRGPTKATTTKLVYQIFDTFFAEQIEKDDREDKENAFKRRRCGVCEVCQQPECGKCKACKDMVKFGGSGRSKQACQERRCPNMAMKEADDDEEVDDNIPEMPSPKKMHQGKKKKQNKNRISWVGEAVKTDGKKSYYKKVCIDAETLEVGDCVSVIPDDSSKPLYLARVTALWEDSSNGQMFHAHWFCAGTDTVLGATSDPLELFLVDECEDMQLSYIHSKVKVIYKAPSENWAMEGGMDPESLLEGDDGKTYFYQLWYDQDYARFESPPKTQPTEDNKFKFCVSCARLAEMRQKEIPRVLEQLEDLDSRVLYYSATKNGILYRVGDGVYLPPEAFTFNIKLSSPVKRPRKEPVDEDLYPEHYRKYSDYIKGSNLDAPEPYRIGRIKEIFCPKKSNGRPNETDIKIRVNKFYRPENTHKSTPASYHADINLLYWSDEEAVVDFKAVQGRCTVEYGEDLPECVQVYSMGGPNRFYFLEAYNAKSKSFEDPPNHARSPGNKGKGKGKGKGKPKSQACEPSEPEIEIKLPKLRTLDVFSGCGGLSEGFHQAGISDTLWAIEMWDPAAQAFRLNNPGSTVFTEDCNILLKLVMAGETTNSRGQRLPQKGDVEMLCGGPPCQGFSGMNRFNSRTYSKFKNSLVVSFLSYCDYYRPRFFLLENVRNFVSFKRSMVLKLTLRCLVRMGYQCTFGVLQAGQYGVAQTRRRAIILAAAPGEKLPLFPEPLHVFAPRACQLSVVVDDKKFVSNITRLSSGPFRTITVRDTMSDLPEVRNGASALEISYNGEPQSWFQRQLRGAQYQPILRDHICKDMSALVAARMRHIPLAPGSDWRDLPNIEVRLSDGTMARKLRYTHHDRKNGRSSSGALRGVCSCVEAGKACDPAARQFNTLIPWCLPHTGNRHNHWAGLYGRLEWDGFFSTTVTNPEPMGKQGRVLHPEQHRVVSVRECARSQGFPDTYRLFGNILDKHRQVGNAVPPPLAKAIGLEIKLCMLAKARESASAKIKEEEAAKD
T3 sequence (P26358 485-1616): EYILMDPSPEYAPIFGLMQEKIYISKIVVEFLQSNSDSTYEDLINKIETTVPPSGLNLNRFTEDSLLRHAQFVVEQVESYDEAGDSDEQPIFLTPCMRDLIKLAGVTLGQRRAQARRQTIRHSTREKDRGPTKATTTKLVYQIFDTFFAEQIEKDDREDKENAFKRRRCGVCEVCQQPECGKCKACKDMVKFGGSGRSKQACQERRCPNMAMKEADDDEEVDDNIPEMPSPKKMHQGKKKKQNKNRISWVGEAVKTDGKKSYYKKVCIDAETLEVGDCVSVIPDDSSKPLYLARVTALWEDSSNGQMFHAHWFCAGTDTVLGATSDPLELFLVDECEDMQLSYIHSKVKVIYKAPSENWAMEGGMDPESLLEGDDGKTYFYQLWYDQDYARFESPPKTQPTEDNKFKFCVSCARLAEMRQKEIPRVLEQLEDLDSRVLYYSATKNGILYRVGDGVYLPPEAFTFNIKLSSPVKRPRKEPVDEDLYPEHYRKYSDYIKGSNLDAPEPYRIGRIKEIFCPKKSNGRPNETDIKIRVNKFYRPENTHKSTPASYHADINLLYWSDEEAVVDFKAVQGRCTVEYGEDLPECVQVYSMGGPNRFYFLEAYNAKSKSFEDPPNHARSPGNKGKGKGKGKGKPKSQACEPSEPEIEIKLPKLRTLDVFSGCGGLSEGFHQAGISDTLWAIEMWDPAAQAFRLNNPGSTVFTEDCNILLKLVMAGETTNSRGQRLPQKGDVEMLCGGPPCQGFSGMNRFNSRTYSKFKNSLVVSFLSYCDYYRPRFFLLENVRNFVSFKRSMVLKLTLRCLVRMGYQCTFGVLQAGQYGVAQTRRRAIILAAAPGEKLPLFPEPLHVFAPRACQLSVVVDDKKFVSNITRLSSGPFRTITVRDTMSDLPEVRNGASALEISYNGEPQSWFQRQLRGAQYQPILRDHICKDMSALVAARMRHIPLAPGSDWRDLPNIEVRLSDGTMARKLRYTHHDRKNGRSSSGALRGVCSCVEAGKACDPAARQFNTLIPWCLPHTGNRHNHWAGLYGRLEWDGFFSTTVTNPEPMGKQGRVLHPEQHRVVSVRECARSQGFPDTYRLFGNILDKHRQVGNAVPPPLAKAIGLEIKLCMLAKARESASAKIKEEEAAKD

Row | SMILES | GI50 ([2]; ALL, read-out: GI50) [µM] | GI50 [3, 10] [µM] | GI50 [3, 11] [µM] | GI50 [4, 12] [µM] | GI50 [6, 13] [µM] | GI50 [1, 14] [µM] | GI50 [7, 15] [µM] | further results
1 | COc1cc2c(cc1OCCCN1CCCC1)N=C(N)C21CCC1 [A-366] |  |  |  |  |  |  |  | GI50 ([1]; OCI-AML-2, combination study set-up, read-out: GI50): > 50 µM
2 | Nc1ncn([C@@H]2O[C@H](CO)[C@@H](O)[C@H]2O)c(=O)n1 [Azacitidine, azacitidine] | 21.2 | 3.96 | 7.7 | 1.93 | 2.6 | > 10 | 5.56 | pIC50 [5]: < 5.00
3 | COc1cc2nc(N3CCCN(C)CC3)nc(NC3CCN(Cc4ccccc4)CC3)c2cc1OC [BIX-01294] | 5.94 | 2.91 | 2.9 | > 4 | > 4 | 6.32 | 11.9 | pIC50 [8]: < 5.00
4 | COc1cc2c(OC3CCN(C)CC3)cc(-c3ccc(C)o3)nc2cc1OCCCN1CCCC1 [CM-1021, 6-methoxy-2-(5-methyl-2-furyl)-4-[(1-methyl-4-piperidyl)oxy]-7-(3-pyrrolidin-1-ylpropoxy)quinoline] |  |  |  |  |  |  |  | reduction of primary activity (4-oxyquinoline vs 4-aminoquinoline) ([5]; secondary amine replaced by ether): more than 2.5 log units
5 | Nc1ncn([C@H]2C[C@H](O)[C@@H](CO)O2)c(=O)n1 [Decitabine, decitabine] |  |  |  |  |  |  |  | GI50 [2]: > 22.4 µM; GI50 ([3]; ALL): 0.49 µM; GI50 ([3]; Homo sapiens, ALL): 0.506 µM; GI50 ([4]; OCI-Ly3, 48 h): > 4 µM; pIC50 [5]: < 5.00; GI50 [6]: > 4 µM; GI50 ([1]; Homo sapiens, OCI-AML2, 48 h): > 10 µM; GI50 ([7]; MV4-11, 48 h): > 50 µM
6 | C[S+](CC[C@H](N)C(=O)[O-])C[C@H]1O[C@@H](n2cnc3c(N)ncnc32)[C@H](O)[C@@H]1O (stereo partly drawn) [SAM, S-adenosyl-L-methionine] |  |  |  |  |  |  |  | pKd [9]: 4.70 to 4.82
7 | COc1cc2c(NC3CCN(C(C)C)CC3)nc(C3CCCCC3)nc2cc1OCCCN1CCCC1 [UNC-0638] | 5.18 | 4.73 | 4.7 | > 4 | > 4 | 7.33 | 12 | 

— publication PMC5458547, “Discovery of first-in-class reversible dual small molecule inhibitors against G9a and DNMTs in hematological malignancies” (Nature Communications, 2017)
